Here are results for 36 compounds from patent US10597366B2, “Aryl ethers and uses thereof” (Peloton Therapeutics, Inc., priority 2013, dated 2020).

Usually EC50 stands for the concentration needed to bring the measured effect to its halfway point.

The structures appear in SMILES notation.

The first test has as its system 786-O-Hif-Luc cells (luciferase gene driven by multiple HIF responsive elements). The test is described as follows: Luciferase Assay. The format is cell-based. The conditions noted are these: 24 h, 786-O-Hif-Luc cells, about 24 hours; read-out: Mean Luciferease EC50. How it is done:
A pool of infected cells were then selected against 2 μg/mL of puromycin (P8833, Sigma) for 10 days followed by limited dilution to select single clones.
Each concentration was tested in triplicate. After about 24 hours, luciferase activity was determined using ONE-Glo Luciferase Assay Reagent (E6110, Promega) following the manufacturer's recommended procedure. EC50 were calculated by using Dotmatics software.
As to `COc1cc(F)cc(Oc2ccc(S(=O)(=O)C(F)F)c3c2CC[C@H]3O)c1` [Compound 6, (R)-7-((difluoromethyl)sulfonyl)-4-(3-fluoro-5-methoxyphenoxy)-2,3-dihydro-1H-inden-1-ol], the EC50 was found to be 75 nM.

For `Cc1c(S(=O)(=O)C(F)F)ccc(Oc2cc(F)cc(C#N)c2)c1C#N` [Compound 33, 6-(3-Cyano-5-fluorophenoxy)-3-((difluoromethyl)sulfonyl)-2-methylbenzonitrile], the EC50 stood at 2900 nM. For `Cc1c(Oc2cc(F)cc(Cl)c2)ccc(S(=O)(=O)C(F)(F)F)c1Cl` [Compound 143, 3-Chloro-1-(3-chloro-5-fluoro-phenoxy)-2-methyl-4-(trifluoromethylsulfonyl)benzene], the EC50 came to 1200 nM. Same read-out and setting: next, `O[C@@H]1CCc2c(Oc3cc(F)cc(F)c3)ccc(C(F)(F)F)c21` [Compound 58, (R)-4-(3,5-Difluorophenoxy)-7-(trifluoromethyl)-2,3-dihydro-1H-inden-1-ol]: 160 nM; `N#Cc1cc(F)cc(Oc2ccc(S(=O)(=O)C(F)F)c3c2CC(F)(F)[C@@H]3O)c1` [Compound 237, (R)-3-((7-((difluoromethyl)sulfonyl)-2,2-difluoro-1-hydroxy-2,3-dihydro-1H-inden-4-yl)oxy)-5-fluorobenzonitrile]: 120 nM. The same measure, in the same setting: next, `CS(=O)(=O)c1ccc(Oc2cc(F)cc(C#N)c2)c2c1[C@H](O)[C@H](F)[C@@H]2O` [Compound 296, 3-fluoro-5-[(1S,2R,3R)-2-fluoro-1,3-dihydroxy-7-methylsulfonyl-indan-4-yl]oxy-benzonitrile]: 1300 nM; `O=S(=O)(c1ccc(Oc2cncc(Cl)c2)c2c1[C@H](O)CC2)C(F)F` [Compound 3, (R)-4-((5-chloropyridin-3-yl)oxy)-7-((difluoromethyl)sulfonyl)-2,3-dihydro-1H-inden-1-ol]: 960 nM; `N#Cc1cc(F)cc(Oc2ccc(S(=O)(=O)C(F)(F)F)c3c2CC(F)(F)[C@H]3NCCO)c1` [Compound 291, 3-[(1S)-2,2-difluoro-1-(2-hydroxyethylamino)-7-(trifluoromethylsulfonyl)indan-4-yl]oxy-5-fluoro-benzonitrile]: 3100 nM. Regarding `N#Cc1cncc(Oc2ccc(S(=N)(=O)C(F)(F)F)c3c2CC(F)(F)[C@H]3O)c1` (stereo partly drawn) [Compound 314, 5-(((1S)-2,2-difluoro-1-hydroxy-7-(S-(trifluoromethyl)sulfonimidoyl)-2,3-dihydro-1H-inden-4-yl)oxy)nicotinonitrile], the EC50 is 150 nM. On the same count and under the same terms, next, `O=S(=O)(c1ccc(Oc2cc(F)cc(Cl)c2)c(Br)c1)C(F)F` [Compound 131, 2-Bromo-1-(3-chloro-5-fluorophenoxy)-4-((difluoromethyl)sulfonyl)benzene]: 2000 nM; `N#Cc1cc(F)cc(Oc2ccc(S(=O)(=O)C(F)(F)F)cc2Br)c1` [Compound 118, 3-(2-Bromo-4-((trifluoromethyl)sulfonyl)phenoxy)-5-fluorobenzonitrile]: 1500 nM.

Consider `O=S(=O)(CF)c1ccc(Oc2cncc(Cl)c2)c2c1[C@H](O)C(F)(F)C2` [Compound 187, (S)-4-((5-Chloropyridin-3-yl)oxy)-2,2-difluoro-7-((fluoromethyl)sulfonyl)-2,3-dihydro-1H-inden-1-ol], for which the half-maximal effective concentration (EC50) was found to be 98 nM. The same measure, in the same setting: the result for `CS(=O)(=O)c1ccc(Oc2cc(F)cc(Cl)c2)c2c1C(O)CC2` (stereo not drawn) [Compound 90, 4-(3-Chloro-5-fluorophenoxy)-7-(methylsulfonyl)-2,3-dihydro-1H-inden-1-ol] reads 850 nM; that for `O=[N+]([O-])c1ccc(Oc2cc(F)cc(Cl)c2)c2c1C(O)CC2` (stereo not drawn) [Compound 255, 4-(3-Chloro-5-fluorophenoxy)-7-nitro-2,3-dihydro-1H-inden-1-ol], 1390 nM. With `CS(=O)(=O)c1ccc(Oc2cc(F)cc(C#N)c2)c(C(F)F)c1C#N` [Compound 94, 3-(3-Cyano-5-fluorophenoxy)-2-(difluoromethyl)-6-(methylsulfonyl)benzonitrile], the 50% effective concentration (EC50) stood at 760 nM. Consider `O=S(=O)(c1ccc(Oc2ccc(F)c(Cl)c2)c2c1C(O)CC2)C(F)(F)F` (stereo not drawn) [Compound 218, 4-(3-Chloro-4-fluorophenoxy)-7-((trifluoromethyl)sulfonyl)-2,3-dihydro-1H-inden-1-ol], for which the 50% effective concentration (EC50) was determined as 3500 nM.

In the case of `N#Cc1cccc(Oc2ccc(S(=O)(=O)C(F)F)c(CO)c2Cl)c1` [Compound 43, 3-(2-Chloro-4-((difluoromethyl)sulfonyl)-3-(hydroxymethyl)phenoxy)benzonitrile], the EC50 stood at 790 nM.

For the compound `CS(=O)(=O)c1ccc(Oc2cc(F)cc(C#N)c2)c2c1[C@H](O)C[C@@H]2F` [Compound 295, 3-fluoro-5-[(1R,3S)-3-fluoro-1-hydroxy-7-methylsulfonyl-indan-4-yl]oxy-benzonitrile], the EC50 was determined as 390 nM. Consider `O=S(=O)(c1ccc(Oc2cncc(Cl)c2)c2c1[C@H](O)C(F)(F)C2)C(F)F` [Compound 25, (S)-4-((5-chloropyridin-3-yl)oxy)-7-((difluoromethyl)sulfonyl)-2,2-difluoro-2,3-dihydro-1H-inden-1-ol], for which the 50% effective concentration (EC50) was found to be 18 nM. On the same count and under the same terms, next, `N=S(=O)(c1ccc(Oc2cc(F)cc(Cl)c2)c(Br)c1Cl)C(F)(F)F` (stereo not drawn) [Compound 75, (3-bromo-2-chloro-4-(3-chloro-5-fluorophenoxy)phenyl)(imino)(trifluoromethyl)-λ^6-sulfanone]: 8800 nM; `C[C@@]1(F)Cc2c(Oc3cc(F)cc(C#N)c3)ccc(S(C)(=O)=O)c2[C@@H]1O` [Compound 300, 3-fluoro-5-(((1S,2R)-2-fluoro-1-hydroxy-2-methyl-7-(methylsulfonyl)-2,3-dihydro-1H-inden-4-yl)oxy)benzonitrile]: 2800 nM. Still for that read-out and setting: the result for `N#Cc1cc(F)cc(Oc2ccc(S(=O)(=O)C(F)F)c3c2CC(F)(F)[C@H]3N)c1` [Compound 207, (S)-3-((1-Amino-7-((difluoromethyl)sulfonyl)-2,2-difluoro-2,3-dihydro-1H-inden-4-yl)oxy)-5-fluorobenzonitrile] reads 830 nM.

Consider `O=S(=O)(CF)c1ccc(Oc2cc(F)cc(F)c2)c2c1C(O)CC2` [Compound 59, (R)-4-(3,5-Difluorophenoxy)-7-((fluoromethyl)sulfonyl)-2,3-dihydro-1H-inden-1-ol], for which the EC50 was 90 nM.

With `CS(=O)(=O)c1ccc(Oc2cc(F)cc(C#N)c2)c2c1C(O)CC2` (stereo not drawn) [Compound 222, 3-Fluoro-5-((1-hydroxy-7-(methylsulfonyl)-2,3-dihydro-1H-inden-4-yl)oxy)benzonitrile], the EC50 is 1800 nM. As for `C[C@@H]1Cc2c(Oc3cc(F)cc(C#N)c3)ccc(S(C)(=O)=O)c2[C@@H]1O` [Compound 301, 3-fluoro-5-(((1R,2R)-1-hydroxy-2-methyl-7-(methylsulfonyl)-2,3-dihydro-1H-inden-4-yl)oxy)benzonitrile], the EC50 was found to be 2100 nM.

For `Cc1c(Oc2cc(F)cc(C#N)c2)ccc(S(=O)(=O)C(F)(F)F)c1CO` [Compound 146, 3-Fluoro-5-[3-(hydroxymethyl)-2-methyl-4-(trifluoromethylsulfonyl)phenoxy]benzonitrile], the EC50 is 480 nM.

For the compound `N#Cc1c(S(=O)(=O)C(F)F)ccc(Oc2cc(F)cc(Cl)c2)c1Cl` [Compound 38, 2-Chloro-3-(3-chloro-5-fluorophenoxy)-6-((difluoromethyl)sulfonyl)benzonitrile], the concentration giving a half-maximal response (EC50) stood at 390 nM. For `O=C1c2c(S(=O)(=O)C(F)F)ccc(Oc3cncc(Cl)c3)c2CC1(F)F` [Compound 182, 4-((5-Chloropyridin-3-yl)oxy)-7-((difluoromethyl)sulfonyl)-2,2-difluoro-2,3-dihydro-1H-inden-1-one], the EC50 was determined as 4000 nM. Still for that read-out and setting: next, `O=C1CCc2c(Oc3cc(F)cc(Cl)c3)ccc(S(=O)(=O)C(F)F)c21` [Compound 18, 4-(3-chloro-5-fluorophenoxy)-7-((difluoromethyl)sulfonyl)-2,3-dihydro-1H-inden-1-one]: 2670 nM; `CS(=O)(=O)c1ccc(Oc2cc(F)cc(C#N)c2)c2c1[C@H](O)[C@H](F)[C@H]2F` [Compound 294, 3-[(1S,2S,3S)-2,3-difluoro-1-hydroxy-7-methylsulfonyl-indan-4-yl]oxy-5-fluoro-benzonitrile]: 1000 nM. Still for that read-out and setting: the result for `CC(O)c1c(S(=O)(=O)C(F)(F)F)ccc(Oc2cc(F)cc(Cl)c2)c1Br` (stereo not drawn) [Compound 103, 1-(2-Bromo-3-(3-chloro-5-fluorophenoxy)-6-((trifluoromethyl)sulfonyl)phenyl)ethan-1-ol] reads 3300 nM.

The same test, now with this note: 24 h, read-out: Mean Luciferease EC50.
With `N#Cc1cc(Cl)cc(Oc2ccc(S(=O)(=O)CF)c3c2CC(F)(F)[C@H]3O)c1` [Compound 167, (S)-3-Chloro-5-((2,2-difluoro-7-((fluoromethyl)sulfonyl)-1-hydroxy-2,3-dihydro-1H-inden-4-yl)oxy)benzonitrile], the EC50 worked out at 16 nM. Still for that read-out and setting: the result for `CNS(=O)(=O)c1ccc(Oc2cc(F)cc(F)c2)c2c1[C@H](O)C(F)(F)C2` [Compound 251, (S)-7-(3,5-Difluorophenoxy)-2,2-difluoro-3-hydroxy-N-methyl-2,3-dihydro-1H-indene-4-sulfonamide] reads 53 nM; that for `CS(=O)(=O)c1ccc(Oc2cc(F)cc(C#N)c2)c2c1C(O)C(F)(F)C2` (stereo not drawn) [Compound 223, 3-((2,2-Difluoro-1-hydroxy-7-(methylsulfonyl)-2,3-dihydro-1H-inden-4-yl)oxy)-5-fluorobenzonitrile], 63 nM; that for `N#Cc1cc(F)cc(Oc2ccc(S(=O)(=O)C(F)(F)F)c3c2CC(F)(F)[C@H]3N)c1` [Compound 290, 3-[(1S)-1-amino-2,2-difluoro-7-(trifluoromethylsulfonyl)indan-4-yl]oxy-5-fluoro-benzonitrile], 170 nM. `N#Cc1cncc(Oc2ccc(S(=O)(=O)C(F)(F)F)c3c2CC(F)(F)[C@H]3O)c1` [Compound 235, (S)-5-((2,2-Difluoro-1-hydroxy-7-((trifluoromethyl)sulfonyl)-2,3-dihydro-1H-inden-4-yl)oxy)nicotinonitrile]: the concentration giving a half-maximal response (EC50) was 15 nM.
